Key:
[1] = test system: genes important for skin structure and function; settings: established models of human skin; cited from earlier work
[2] = test system: atrophy induced by topical betamethasone; experiment: Betamethasone-induced skin atrophy in mice, concomitant TriAc; type: in vivo; settings: concomitant treatment with topical betamethasone

In the case of `O=C(O)Cc1cc(I)c(Oc2ccc(O)c(I)c2)c(I)c1` [TriAc, [4-(4-Hydroxy-3-iodophenoxy)-3,5-diiodophenyl]acetic acid], the “expression of genes important for skin structure and function” value [1] is given as “regulate expression of several genes” and the “atrophy (reduction of total collagen and of cross-linking between collagen bundles in the dermis)” value [2] is given as “totally prevents the atrophy”.
